{"source": "paper PMC6208650", "assay": "on-resin lactamisation, Asp side-chain COOH (C-terminal residue, anchored via Rink amide) + alpha-NH2 of N-terminal Dap(Boc); HATU/DIEA 1.05:2.1 equiv, overnight; then TFA cleavage", "details": "22-membered ring, NMP, 57.0 mM; for ring closure, product found: scale: 1 = cyclic product is largest ESI-MS signal, 0 = linear; for ring closure, conversion by HPLC: scale: % crude HPLC purity, 320 nm area of tallest peak or peak cluster", "key": {"[1]": {"details": "from CC(C)(C)OC(=O)NC[C@H](N)C(=O)NCC(=O)N[C@@H](CNC(=O)c1cnc2ccccc2n1)C(=O)N[C@@H](CNC(=O)c1cnc2ccccc2n1)C(=O)NCC(=O)N[C@@H](CNC(=O)c1cnc2ccccc2n1)C(=O)N[C@@H](CC(=O)O)C(N)=O"}, "[2]": {"details": "from CC(C)(C)OC(=O)NC[C@H](N)C(=O)NCC(=O)NCC(=O)N[C@@H](CNC(=O)c1cnc2ccccc2n1)C(=O)N[C@@H](CNC(=O)c1cnc2ccccc2n1)C(=O)N[C@@H](CNC(=O)c1cnc2ccccc2n1)C(=O)N[C@@H](CC(=O)O)C(N)=O"}, "[3]": {"details": "from CC(C)(C)OC(=O)NC[C@H](N)C(=O)N[C@@H](CNC(=O)c1cnc2ccccc2n1)C(=O)NCC(=O)N[C@@H](CNC(=O)c1cnc2ccccc2n1)C(=O)N[C@@H](CNC(=O)c1cnc2ccccc2n1)C(=O)NCC(=O)N[C@@H](CC(=O)O)C(N)=O"}, "[4]": {"details": "from CC(C)(C)OC(=O)NC[C@H](N)C(=O)N[C@@H](CNC(=O)c1cnc2ccccc2n1)C(=O)N[C@@H](CNC(=O)c1cnc2ccccc2n1)C(=O)NCC(=O)NCC(=O)N[C@@H](CNC(=O)c1cnc2ccccc2n1)C(=O)N[C@@H](CC(=O)O)C(N)=O"}, "[5]": {"details": "from CC(C)(C)OC(=O)NC[C@H](N)C(=O)N[C@@H](CNC(=O)c1cnc2ccccc2n1)C(=O)N[C@@H](CNC(=O)c1cnc2ccccc2n1)C(=O)NCC(=O)N[C@@H](CNC(=O)c1cnc2ccccc2n1)C(=O)NCC(=O)N[C@@H](CC(=O)O)C(N)=O"}, "[6]": {"details": "from CC(C)(C)OC(=O)NC[C@H](N)C(=O)N[C@@H](CNC(=O)c1cnc2ccccc2n1)C(=O)NCC(=O)NCC(=O)N[C@@H](CNC(=O)c1cnc2ccccc2n1)C(=O)NCC(=O)N[C@@H](CC(=O)O)C(N)=O"}, "[7]": {"details": "from CC(C)(C)OC(=O)NC[C@H](N)C(=O)NCC(=O)NCC(=O)N[C@@H](CNC(=O)c1cnc2ccccc2n1)C(=O)NCC(=O)N[C@@H](CNC(=O)c1cnc2ccccc2n1)C(=O)N[C@@H](CC(=O)O)C(N)=O"}, "[8]": {"details": "from CC(C)(C)OC(=O)NC[C@H](N)C(=O)N[C@@H](CNC(=O)c1cnc2ccccc2n1)C(=O)NCC(=O)N[C@@H](CNC(=O)c1cnc2ccccc2n1)C(=O)NCC(=O)N[C@@H](CNC(=O)c1cnc2ccccc2n1)C(=O)N[C@@H](CC(=O)O)C(N)=O"}, "[9]": {"details": "from CC(C)(C)OC(=O)NC[C@H](N)C(=O)NCC(=O)NCC(=O)N[C@@H](CNC(=O)c1cnc2ccccc2n1)C(=O)N[C@@H](CNC(=O)c1cnc2ccccc2n1)C(=O)NCC(=O)N[C@@H](CC(=O)O)C(N)=O"}, "[10]": {"details": "from CC(C)(C)OC(=O)NC[C@H](N)C(=O)NCC(=O)N[C@@H](CNC(=O)c1cnc2ccccc2n1)C(=O)N[C@@H](CNC(=O)c1cnc2ccccc2n1)C(=O)NCC(=O)NCC(=O)N[C@@H](CC(=O)O)C(N)=O"}}, "data": [{"smiles": "NC[C@@H]1NC(=O)C[C@@H](C(N)=O)NC(=O)[C@H](CNC(=O)c2cnc3ccccc3n2)NC(=O)CNC(=O)[C@H](CNC(=O)c2cnc3ccccc3n2)NC(=O)[C@H](CNC(=O)c2cnc3ccccc3n2)NC(=O)CNC1=O", "values": [{"measurement": "ring closure, product found", "setting": "[1]", "value": 0}, {"measurement": "ring closure, conversion by HPLC", "setting": "[1]", "value": "< 34"}]}, {"smiles": "NC[C@@H]1NC(=O)C[C@@H](C(N)=O)NC(=O)[C@H](CNC(=O)c2cnc3ccccc3n2)NC(=O)[C@H](CNC(=O)c2cnc3ccccc3n2)NC(=O)[C@H](CNC(=O)c2cnc3ccccc3n2)NC(=O)CNC(=O)CNC1=O", "values": [{"measurement": "ring closure, product found", "setting": "[2]", "value": 0}, {"measurement": "ring closure, conversion by HPLC", "setting": "[2]", "value": "< 48"}]}, {"smiles": "NC[C@@H]1NC(=O)C[C@@H](C(N)=O)NC(=O)CNC(=O)[C@H](CNC(=O)c2cnc3ccccc3n2)NC(=O)[C@H](CNC(=O)c2cnc3ccccc3n2)NC(=O)CNC(=O)[C@H](CNC(=O)c2cnc3ccccc3n2)NC1=O", "values": [{"measurement": "ring closure, product found", "setting": "[3]", "value": 1}, {"measurement": "ring closure, conversion by HPLC", "setting": "[3]", "value": 81}]}, {"smiles": "NC[C@@H]1NC(=O)C[C@@H](C(N)=O)NC(=O)[C@H](CNC(=O)c2cnc3ccccc3n2)NC(=O)CNC(=O)CNC(=O)[C@H](CNC(=O)c2cnc3ccccc3n2)NC(=O)[C@H](CNC(=O)c2cnc3ccccc3n2)NC1=O", "values": [{"measurement": "ring closure, product found", "setting": "[4]", "value": 1}, {"measurement": "ring closure, conversion by HPLC", "setting": "[4]", "value": 48}]}, {"smiles": "NC[C@@H]1NC(=O)C[C@@H](C(N)=O)NC(=O)CNC(=O)[C@H](CNC(=O)c2cnc3ccccc3n2)NC(=O)CNC(=O)[C@H](CNC(=O)c2cnc3ccccc3n2)NC(=O)[C@H](CNC(=O)c2cnc3ccccc3n2)NC1=O", "values": [{"measurement": "ring closure, product found", "setting": "[5]", "value": 1}, {"measurement": "ring closure, conversion by HPLC", "setting": "[5]", "value": 49}]}, {"smiles": "NC[C@@H]1NC(=O)C[C@@H](C(N)=O)NC(=O)CNC(=O)[C@H](CNC(=O)c2cnc3ccccc3n2)NC(=O)CNC(=O)CNC(=O)[C@H](CNC(=O)c2cnc3ccccc3n2)NC1=O", "values": [{"measurement": "ring closure, product found", "setting": "[6]", "value": 1}, {"measurement": "ring closure, conversion by HPLC", "setting": "[6]", "value": 53}]}, {"smiles": "NC[C@@H]1NC(=O)C[C@@H](C(N)=O)NC(=O)[C@H](CNC(=O)c2cnc3ccccc3n2)NC(=O)CNC(=O)[C@H](CNC(=O)c2cnc3ccccc3n2)NC(=O)CNC(=O)CNC1=O", "values": [{"measurement": "ring closure, product found", "setting": "[7]", "value": 1}, {"measurement": "ring closure, conversion by HPLC", "setting": "[7]", "value": 76}]}, {"smiles": "NC[C@@H]1NC(=O)C[C@@H](C(N)=O)NC(=O)[C@H](CNC(=O)c2cnc3ccccc3n2)NC(=O)CNC(=O)[C@H](CNC(=O)c2cnc3ccccc3n2)NC(=O)CNC(=O)[C@H](CNC(=O)c2cnc3ccccc3n2)NC1=O", "values": [{"measurement": "ring closure, product found", "setting": "[8]", "value": 1}, {"measurement": "ring closure, conversion by HPLC", "setting": "[8]", "value": 24}]}, {"smiles": "NC[C@@H]1NC(=O)C[C@@H](C(N)=O)NC(=O)CNC(=O)[C@H](CNC(=O)c2cnc3ccccc3n2)NC(=O)[C@H](CNC(=O)c2cnc3ccccc3n2)NC(=O)CNC(=O)CNC1=O", "values": [{"measurement": "ring closure, product found", "setting": "[9]", "value": 1}, {"measurement": "ring closure, conversion by HPLC", "setting": "[9]", "value": 60}]}, {"smiles": "NC[C@@H]1NC(=O)C[C@@H](C(N)=O)NC(=O)CNC(=O)CNC(=O)[C@H](CNC(=O)c2cnc3ccccc3n2)NC(=O)[C@H](CNC(=O)c2cnc3ccccc3n2)NC(=O)CNC1=O", "values": [{"measurement": "ring closure, product found", "setting": "[10]", "value": 1}, {"measurement": "ring closure, conversion by HPLC", "setting": "[10]", "value": 69}]}]}
